# Reference: USRE39616E1, “Aminoindan derivatives” (priority 1996, dated 2007)
# Where a name gives a salt, the structure may show the parent alone. Read-outs that look alike come from different tables or passages of the source.
# Key:
# [1] = biological target: T1, Human erythrocyte acetylcholinesterase (Homo sapiens, UniProt P22303); experiment: biochemical; assay type: biochemical
# T1 construct: Human erythrocyte acetylcholinesterase (type XIII, Sigma Israel); purchased Sigma Israel type XIII; host or cells: human erythrocytes
# Description: Human erythrocyte acetylcholinesterase (type XIII, Sigma Israel), was prepared in a stock solution of 1 U/ml, containing Triton (1%) and bovine serum albumin (0.05%) in phosphate buffer (pH 8). The enzyme (0.05U) was incubated with 3-5 different concentrations of test compound (in triplicate) for periods of from 15 to 60 minutes at 37° C. […] The percentage inhibition of AChE by each concentration of drug is calculated by comparison with that of enzyme in the absence of drug.
# [2] = biological target: T2, whole brain AChE (Mus musculus, UniProt P21836); details: for AChE Inhibition Ex vivo ED50 (AC): mice, whole brain, at peak of activity; for AChE Inhibition Time to peak activity t / AChE Inhibition Time to return to 50% of peak t: mouse, in vivo
# T2 sequence (P21836 32-614): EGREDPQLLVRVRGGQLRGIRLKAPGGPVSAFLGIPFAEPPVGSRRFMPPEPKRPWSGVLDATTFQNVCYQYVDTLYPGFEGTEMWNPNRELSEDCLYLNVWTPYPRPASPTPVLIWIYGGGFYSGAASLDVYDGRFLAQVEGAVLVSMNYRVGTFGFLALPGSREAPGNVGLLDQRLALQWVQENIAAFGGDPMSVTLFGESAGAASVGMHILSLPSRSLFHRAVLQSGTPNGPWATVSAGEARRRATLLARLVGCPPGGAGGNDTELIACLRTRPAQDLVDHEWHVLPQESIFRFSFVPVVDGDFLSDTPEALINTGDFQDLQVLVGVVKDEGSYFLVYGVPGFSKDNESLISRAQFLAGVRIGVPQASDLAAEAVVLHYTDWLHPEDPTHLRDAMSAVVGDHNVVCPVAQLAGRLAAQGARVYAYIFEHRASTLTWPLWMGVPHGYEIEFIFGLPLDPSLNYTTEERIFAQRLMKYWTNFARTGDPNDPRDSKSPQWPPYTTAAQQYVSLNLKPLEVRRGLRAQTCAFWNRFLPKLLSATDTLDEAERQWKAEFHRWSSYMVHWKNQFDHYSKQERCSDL
# Description: Test drugs or saline were administered sub-cutaneously to male mice (Sabra strain, 28-35 g). […] The mice were sacrificed 15, 30, 50, 70, 90, 120 or 180 minutes after drug administration, the brains rapidly removed (minus cerebellum), weighed and homogenized in 0.1 M phosphate buffer, pH 8.0, containing Triton (1 mg/100 g tissue) and centrifuged to remove cell debris. Aliquots (25 μl) of the supernatant were then incubated with acetylthiocholine and DTNB. AChE activity was measured as described above. The % inhibition of whole brain AChE by each dose of drug was calculated by comparison with enzyme activity from 3 saline treated control mice run at the same time.
# [3] = test system: mice; details: mice, within 6 hours after administration
# Description: Therapeutic Ratio was calculated as LD50 divided by ED50 of ex vivo acetylcholine esterase inhibition.
# [4] = biological target: T3, MAO-B (Mus musculus, UniProt Q8BW75); experiment: Inhibition of MAO activity ex vivo (brain); assay type: in vivo, mice; details: mice, brain tissue
# T3 construct: from tissue; host or cells: mouse brain
# T3 sequence (Q8BW75 1-520): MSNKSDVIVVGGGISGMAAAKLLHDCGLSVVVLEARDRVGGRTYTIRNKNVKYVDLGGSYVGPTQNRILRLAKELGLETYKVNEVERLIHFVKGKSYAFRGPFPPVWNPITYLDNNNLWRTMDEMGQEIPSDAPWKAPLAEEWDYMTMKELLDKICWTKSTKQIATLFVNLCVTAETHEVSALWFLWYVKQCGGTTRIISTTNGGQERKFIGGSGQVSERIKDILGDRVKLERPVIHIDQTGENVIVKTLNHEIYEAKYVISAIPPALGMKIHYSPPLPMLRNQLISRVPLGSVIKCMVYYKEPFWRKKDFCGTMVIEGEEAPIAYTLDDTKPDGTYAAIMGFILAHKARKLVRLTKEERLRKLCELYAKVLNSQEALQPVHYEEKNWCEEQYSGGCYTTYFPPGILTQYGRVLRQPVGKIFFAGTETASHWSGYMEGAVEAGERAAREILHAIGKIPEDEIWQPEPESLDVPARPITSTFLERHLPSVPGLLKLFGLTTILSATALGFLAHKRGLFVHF
# Description: (§1) Substrate concentrations used were 50 μM (PEA) and 1 mM (5-HT).
# (§2) Male Sabra mice, weighing 45-50 g were injected with test compound solutions (prepared in 0.9% saline). Each dose was administered to two or three mice. The mice were sacrificed two hours after drug administration or at a time corresponding to the peak AChE inhibition time (see Table 11). The brain and liver were rapidly dissected and stored in appropriate vials on ice. The tissues were weighed, diluted to ½ in sucrose 0.3M and stored at −20° C. before performance of the MAO assay described above. The results given in Table 11 relate to measurements made on brain tissue only.
# [5] = biological target: T4, MAO-A (Mus musculus, UniProt Q64133); experiment: Inhibition of MAO activity ex vivo (brain); assay type: in vivo, mice; details: mice, brain tissue
# T4 construct: from tissue; host or cells: mouse brain
# T4 sequence (Q64133 1-526): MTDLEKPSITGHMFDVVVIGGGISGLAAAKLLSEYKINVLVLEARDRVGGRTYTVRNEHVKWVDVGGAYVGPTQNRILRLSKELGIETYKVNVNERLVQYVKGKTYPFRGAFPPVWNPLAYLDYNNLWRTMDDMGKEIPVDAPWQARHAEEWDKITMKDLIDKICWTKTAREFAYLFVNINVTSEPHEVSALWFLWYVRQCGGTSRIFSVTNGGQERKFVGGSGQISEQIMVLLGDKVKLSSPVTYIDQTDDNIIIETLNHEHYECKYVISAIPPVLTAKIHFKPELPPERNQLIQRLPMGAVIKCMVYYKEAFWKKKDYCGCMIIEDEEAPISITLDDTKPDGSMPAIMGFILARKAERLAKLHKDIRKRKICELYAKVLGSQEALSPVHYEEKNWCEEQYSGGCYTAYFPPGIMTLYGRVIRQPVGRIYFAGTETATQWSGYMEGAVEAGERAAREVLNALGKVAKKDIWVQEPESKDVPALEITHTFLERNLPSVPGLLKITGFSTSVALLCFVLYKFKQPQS
# Description: as §1, §2
# [6] = biological target: T5, MAO-A (Rattus norvegicus, UniProt P21396); experiment: Inhibition of MAO activity in vitro, 5-HT as substrate; assay type: biochemical; design: The MAO enzyme source was a homogenate of rat brain in 0.3M sucrose; from tissue; host or cells: rat brain homogenate, 600 g supernatant; details: 5-HT substrate
# T5 sequence (P21396 1-526): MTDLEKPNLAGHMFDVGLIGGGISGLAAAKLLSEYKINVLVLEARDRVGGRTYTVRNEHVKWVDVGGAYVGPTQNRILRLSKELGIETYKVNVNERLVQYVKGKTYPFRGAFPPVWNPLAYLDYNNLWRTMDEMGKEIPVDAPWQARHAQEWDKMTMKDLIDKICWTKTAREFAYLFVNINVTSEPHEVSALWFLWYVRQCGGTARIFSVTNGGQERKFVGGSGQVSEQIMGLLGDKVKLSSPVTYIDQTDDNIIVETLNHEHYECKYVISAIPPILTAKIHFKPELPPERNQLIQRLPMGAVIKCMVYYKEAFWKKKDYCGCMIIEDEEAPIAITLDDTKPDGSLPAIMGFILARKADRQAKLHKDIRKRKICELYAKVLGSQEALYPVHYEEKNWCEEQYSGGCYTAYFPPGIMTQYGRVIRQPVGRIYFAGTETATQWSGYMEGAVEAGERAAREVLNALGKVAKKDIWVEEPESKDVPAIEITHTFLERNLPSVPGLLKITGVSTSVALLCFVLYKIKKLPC
# Description: as §1
# [7] = test system: mice, hypobaric hypoxic model; experiment: animal or person; assay type: in vivo; details: for response vs control in vivo at 0.2 mg/kg: 0.2 mg/kg sc
# Excerpt: A 12 liter desiccator (desiccator A) and a 2.5 liter desiccator (desiccator B) were separately connected to a vacuum pump. Desiccator B was disconnected and allowed to equilibrate with room air whilst desiccator A was evacuated to a pressure of 100 mmHg. Four male ICR albino mice (22-28 g) were placed in desiccator B. Desiccator B was then closed to room air and connected to desiccator A. The pressure inside desiccator B was monitored using a mercury manometer and at the point were the pressure in desiccator B reached 200 mmpg (usually within 14 seconds), the two desiccators were disconnected from the vacuum pump and the pump switched off. The survival time from the moment of induction of hypoxia to the time of cessation of respiration was recorded for each mouse for a maximum of 15 minutes after which time room air was reintroduced to desiccator B. Survivors were monitored for signs of lethargy or vitality.
# Effect of drug treatment was assessed as the percent of the survival time of the drug treated group with respect to the saline injected or vehicle injected control group. […] The effect of each dose of test drug was determined in duplicate i.e. two groups of 4 mice.
# Positive reference drugs were sodium pentobarbital at a dose of 40 mg/kg, and diazepam 10 mg/kg given 0.5 h prior to hypoxia, physostigmine 0.2 and 0.4 mg/kg and neostigmine 0.2 mg/kg given sc 30 min before hypoxia. Methyl atropine 1 mg/kg was given sc. 10 min. before physostigmine.
# Test drugs were dissolved in 0.9% saline, and injected sc. in the nip of the neck at a dose in accordance with body weight, 60-90 min. before hypoxia. The volume of injection was 0.2-0.3 mL per mouse (10 mL/kg). The initial dose was about one third of the reported LD50 for acetylcholine esterase inhibition. If no protection could be obtained, the dose was further increased to the nearest non-toxic dose. In case of protection, the dose was further reduced in an attempt to locate the “protective” dose range.
# [8] = read-out: AChE Inhibition In vitro IC50
# [9] = human erythrocyte AChE, at time of peak activity, read-out: AChE Inhibition In vitro IC50
# [10] = Mus musculus, 30 min before hypoxia, read-out: Protection (survival time)
# T1 sequence (P22303 32-617 isoform P22303-2 limits assumed): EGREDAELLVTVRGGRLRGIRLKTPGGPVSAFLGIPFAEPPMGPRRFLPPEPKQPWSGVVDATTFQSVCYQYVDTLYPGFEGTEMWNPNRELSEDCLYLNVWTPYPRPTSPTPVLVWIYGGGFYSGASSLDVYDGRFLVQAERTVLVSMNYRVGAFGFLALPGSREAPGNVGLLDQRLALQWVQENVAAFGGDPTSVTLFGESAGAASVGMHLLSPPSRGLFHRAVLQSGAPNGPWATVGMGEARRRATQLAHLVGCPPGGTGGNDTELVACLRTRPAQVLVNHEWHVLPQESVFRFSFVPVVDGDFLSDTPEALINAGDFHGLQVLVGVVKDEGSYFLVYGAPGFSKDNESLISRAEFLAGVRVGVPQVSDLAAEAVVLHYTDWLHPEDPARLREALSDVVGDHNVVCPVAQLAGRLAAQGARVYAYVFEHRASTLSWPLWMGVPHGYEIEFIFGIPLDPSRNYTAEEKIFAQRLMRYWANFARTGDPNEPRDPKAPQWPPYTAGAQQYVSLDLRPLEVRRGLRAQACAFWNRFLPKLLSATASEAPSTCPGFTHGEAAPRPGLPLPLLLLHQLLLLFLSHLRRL
smiles,measurement,setting,value
CN(C(=O)Oc1ccc2c(c1)C(N)CC2)C1CCCCC1 (stereo not drawn) [Compound 17],IC50,[1]; [8],4 µM
C#CCNC1CCc2ccc(OC(=O)N(C)CC)cc21 (stereo not drawn) [Compound 60],IC50,[1]; AChE Inhibition In vitro IC50,42 µM
CNC1CCc2cccc(OC(=O)N(C)C)c21 (stereo not drawn) [Compound 9],AChE Inhibition Ex vivo ED50 (AC),[2],19 µmol/kg
same,AChE Inhibition Time to peak activity t,[2],15 min
same,Acute Toxicity LD50 (LD),[3],93 µmol/kg
C#CCNC1CCc2cccc(OC(=O)N(C)CC)c21 (stereo not drawn) [Compound 33],MAO-B Inhibition Ex vivo ED50,[4],1000 µmol/kg
same,MAO-A Inhibition Ex vivo ED50,[5],>>1200 μmoles/kg
same,IC50,[1]; AChE Inhibition In vitro IC50,540 µM
C#CCNC1CCc2ccc(OC(=O)N(CC)C3CCCCC3)cc21 (stereo not drawn) [Compound 85],AChE Inhibition Ex vivo ED50 (AC),[2],>100 µmol/kg
same,IC50,[1]; [9],17 µM
"CCN(C)C(=O)Oc1ccc2c(c1)C(N)CC2 (stereo not drawn) [Compound 3, 6-(N-Me,N-Et Carbamyloxy) aminoindan HCl]",AChE Inhibition Ex vivo ED50 (AC),[2],46.3 µmol/kg
same,AChE Inhibition Time to peak activity t,[2],60 to 90 min
same,AChE Inhibition Time to return to 50% of peak t,[2],>180 min
same,Acute Toxicity LD50 (LD),[3],950 µmol/kg
same,IC50,"[6]; MAO-A Inhibition In vitro IC50, rat brain homogenate",12.6 µM
"C#CCNC1CCc2ccc(OC(=O)N(C)C)cc21 (single isomer, unassigned) [Compound 55]",MAO-B Inhibition Ex vivo ED50,[4],>100 µmol/kg
same,MAO-A Inhibition Ex vivo ED50,[5],>100 µmol/kg
CCN(C)C(=O)Oc1cccc2c1C(N)CC2 (stereo not drawn) [Compound 5],AChE Inhibition Ex vivo ED50 (AC),[2],85.0 µmol/kg
same,AChE Inhibition Time to peak activity t,[2],60 min
same,AChE Inhibition Time to return to 50% of peak t,[2],>120 min
same,Acute Toxicity LD50 (LD),[3],840 µmol/kg
same,MAO-B Inhibition Ex vivo ED50,[4],>>277 μmoles/kg
same,MAO-A Inhibition Ex vivo ED50,[5],>>277 μmoles/kg
C#CCNC1CCc2ccc(OC(=O)NCC)cc21 (stereo not drawn) [Compound 56],AChE Inhibition Ex vivo ED50 (AC),[2],180 µmol/kg
same,IC50,[1]; [9],11.5 µM
C#CCNC1CCc2ccc(OC(=O)N(CC)CCCC)cc21 (stereo not drawn) [Compound 83],IC50,[1]; [9],80 µM
"CNC(=O)Oc1ccc2c(c1)[C@]1(C)CCN(C)[C@@H]1N2C [physostigmine, reference compound]",response vs control in vivo at 0.2 mg/kg,[7]; [10],453 ± 222%
same,response vs control in vivo at 0.4 mg/kg,"[7]; Mus musculus, 0.4 mg/kg sc, 30 min before hypoxia, read-out: Protection (survival time)",552 ± 210%
CCCC(C)C1(CC)C(=O)N=C([O-])NC1=O.[Na+] (stereo not drawn) [Nembutal],Protection (survival time),"[7]; 40 mg/kg, 30 min before hypoxia",253 ± 200 % of control
C#CCN(C)C1CCc2ccc(OC(=O)N(C)CC)cc21 (stereo not drawn) [Compound 30],IC50,[1]; [8],1300 µM
C#CCNC1CCc2ccc(OC(=O)N(C)CCCC)cc21 (stereo not drawn) [Compound 87],IC50,[1]; [8],9.1 µM
"CN(C)C(=O)Oc1cccc([N+](C)(C)C)c1 [neostigmine, reference compound]",response vs control in vivo at 0.2 mg/kg,[7]; [10],141 ± 32%
"C#CCNC1CCc2ccc(OC(=O)N(C)C)cc21 (single isomer, unassigned) [Compound 54]",MAO-B Inhibition Ex vivo ED50,[4],>100 µmol/kg
same,MAO-A Inhibition Ex vivo ED50,[5],>100 µmol/kg
CN(C)C(=O)Oc1ccc2c(c1)C(N(C)C)CC2 (stereo not drawn) [Compound 12],AChE Inhibition Ex vivo ED50 (AC),[2],8.0 µmol/kg
same,AChE Inhibition Time to peak activity t,[2],15 min
same,response vs control in vivo at 7 mg/kg,"[7]; Mus musculus, sc, read-out: Protection (survival time), 7 mg/kg sc, 60 min before hypoxia",248 ± 97%
same,response vs control in vivo at 10 mg/kg,"[7]; Mus musculus, sc, read-out: Protection (survival time), 10 mg/kg sc, 60 min before hypoxia",386 ± 238%
same,response vs control in vivo at 15 mg/kg,"[7]; Mus musculus, sc, read-out: Protection (survival time), 15 mg/kg sc, 60 min before hypoxia",649 ± 221%
same,response vs control in vivo at 20 mg/kg,"[7]; Mus musculus, sc, read-out: Protection (survival time), 20 mg/kg sc, 60 min before hypoxia",725 ± 128%
same,Acute Toxicity LD50 (LD),[3],<20 µmol/kg
C#CCNC1CCc2cccc(OC(=O)N(C)CCC)c21 (stereo not drawn) [Compound 28],IC50,[1]; [9],100 µM
C#CCNC1CCc2ccc(OC(=O)N(C)CCCC)cc21 (stereo not drawn) [Compound 86],IC50,[1]; [8],10.5 µM
CCCN(C)C(=O)Oc1ccc2c(c1)C(N)CC2 (stereo not drawn) [Compound 2],IC50,[1]; [8],7.3 µM
same,IC50,"[6]; rat brain homogenate, read-out: MAO-A Inhibition In vitro IC50",32 µM
